From publication PMC4028696, “Development of a screen to identify selective small molecules active against patient-derived metastatic and chemoresistant breast cancer cells” (Breast Cancer Research : BCR, 2013)
Where a name gives a salt, the structure may show the parent alone. Peptide text beside a SMILES is read from it. * marks the point of attachment. Cbz = O=C(OCc1ccccc1)*; CH2F = FC*

Key:
Format in all cases: cell-based, human
MCF-7 cells [1] = experiment: Dose response assay, ATPlite viability, four days; conditions: MCF-7, four days of treatment, ATP viability
Procedure: (§1) Cells were seeded in white 96-well plates (Costar, Tewksbury, MA, USA) in 100 μL of their respective media at varying densities to achieve 80% to 90% confluency after five days in culture. The compounds dissolved in DMSO were diluted in their corresponding media containing 2% FBS and an EP Motion 5075 (Eppendorf North America, Hauppauge, NY, USA) liquid handler was utilized to perform a serial dilution. […] After the cells were cultured for 24 hours, the media were aspirated and the cells were treated with the compounds and vehicle controls in triplicate. After four days of treatment, viability was determined utilizing the ATPlite 1step assay system (Perkin Elmer, Waltham, MA, USA) according to the manufacturer's instructions. Luminescence measurements were acquired utilizing a Perkin Elmer 2104 EnVision plate reader. Raw luminescence values were normalized to the DMSO vehicle control wells.

MDA-MB-231 cells = experiment: Dose response assay, ATPlite viability, four days; conditions: MDA-MB-231, four days of treatment, ATP viability
Procedure: as §1

PE1007070 cells = experiment: Dose response assay, ATPlite viability, four days; conditions: PE1007070, four days of treatment, ATP viability
Procedure: as §1

PE1008032 cells = experiment: Dose response assay, ATPlite viability, four days; conditions: PE1008032, four days of treatment, ATP viability
Procedure: as §1

PE904557a cells = experiment: Dose response assay, ATPlite viability, four days; conditions: four days of treatment, ATP viability, N/A = data could not be fitted
Procedure: as §1

T47D cells = experiment: Dose response assay, ATPlite viability, four days; conditions: four days of treatment, ATP viability
Procedure: as §1

MCF-7 cells [2] = experiment: Pan-caspase inhibitor effect on C-6 induced cell death; conditions: data not shown
LC3A/B-II = experiment: Western blot for LC3A/B-II (autophagy); conditions: most cells, 50 μM, 24 hours
Procedure: Cells were lysed in cold radioimmunoprecipitation assay buffer (50 mM Tris HCl, 150 mM NaCl, 0.1% sodium dodecyl sulfate (SDS), 0.5% sodium deoxycholate, 1% Triton X-100, pH = 8.0) supplemented with protease inhibitor cocktail (Sigma), phosphatase inhibitor cocktail 2 (Sigma) and 1 mM dithiothreitol (DTT) (Sigma). The lysate was sonicated for 30 seconds using a 450 Sonifier (Branson Ultrasonics, Danbury, CT, USA) and was centrifuged at 14,000 RPM for five minutes at 4°C. The protein concentration was determined using the BCA protein assay kit (Peirce, Rockford, IL, USA) and the samples were boiled for five minutes with 4× SDS Laemmli buffer. Equal amounts of protein were resolved on SDS polyacrylamide gels and transferred to an Immobilon-FL PVDF membrane (EMD Millipore). Blots were blocked in Odyssey Blocking Buffer (LI-COR, Lincoln, NE, USA) for one hour at room temperature, stained with primary antibodies overnight at 4°C, washed, and stained with IR800CW or IR680 anti-mouse or rabbit secondary antibodies (LI-COR) for one hour at room temperature. Blots were imaged with the Odyssey Infrared Imaging System (LI-COR).

[3] = Homo sapiens, 96 h, N/A = data could not be fitted

Row | Compound | EC50 (MCF-7 cells [1]; Homo sapiens, MCF7, 96 h) | EC50 (MDA-MB-231 cells; Homo sapiens, 96 h) | EC50 (T47D cells; Homo sapiens, 96 h) | EC50 (PE1007070 cells; [3]) | EC50 (PE1008032 cells; [3]) | EC50 (PE904557a cells; Homo sapiens, 96 h) | other results
1 | C=CCNC1=C2C[C@@H](C)C[C@H](OC)[C@H](O)[C@@H](C)/C=C(\C)[C@H](OC(N)=O)[C@@H](OC)/C=C\C=C(/C)C(=O)NC(=CC1=O)C2=O [17-AAG, 17-(allylamino)-17-demethoxygeldanamycin] | – | – | – | – | – | – | EC50 (MCF-7 cells [1]): 0.867 µM; EC50 (MDA-MB-231 cells): 1.5 µM; EC50 (PE1007070 cells): 1.15 µM; EC50 (PE1008032 cells): 1.66 µM; EC50 (PE904557a cells): 0.0368 µM; EC50 (T47D cells): 1.41 µM
2 | N.N.[Cl][Pt][Cl] [Cisplatin, cis-diammineplatinum (II) dichloride] | – | – | – | – | – | – | EC50 (MCF-7 cells [1]): 8.67 µM; EC50 (MDA-MB-231 cells): 6.88 µM; EC50 (PE1007070 cells): 10.1 µM; EC50 (PE1008032 cells): 19.4 µM; EC50 (T47D cells): 50.2 µM
3 | COc1cccc2c1C(=O)c1c(O)c3c(c(O)c1C2=O)C[C@@](O)(C(=O)CO)C[C@@H]3O[C@H]1C[C@H](N)[C@H](O)[C@H](C)O1 [Doxorubicin, doxorubicin hydrochloride] | 0.261 µM | 0.11 µM | 0.192 µM | 0.677 µM | 0.346 µM | 0.736 µM | –
4 | Nc1ccn([C@@H]2O[C@H](CO)[C@@H](O)C2(F)F)c(=O)n1 [Gemcitabine, gemcitabine hydrochloride] | 0.00273 µM | 0.00963 µM | 0.00629 µM | – | – | – | –
5 | COC(=O)C[C@H](NC(=O)[C@H](C)NC(=O)[C@@H](NC(=O)OCc1ccccc1)C(C)C)C(=O)CF [Z-VAD-FMK] (Cbz-Val-Ala-Asp(OMe)-CH2F) | – | – | – | – | – | – | effect on C-6 induced cell death (MCF-7 cells [2]): did not affect
6 | CCN(CC)CCCC(C)Nc1ccnc2cc(Cl)ccc12 (stereo not shown) [chloroquine, Chloroquine] | – | – | – | – | – | – | LC3A/B-II levels (LC3A/B-II): significant increase

More lines, main results first:

Row | EC50 (MCF-7 cells [1]; Homo sapiens, MCF7, 96 h) | EC50 (MDA-MB-231 cells; Homo sapiens, 96 h) | EC50 (T47D cells; Homo sapiens, 96 h) | Compound | EC50 (PE1007070 cells; [3]) | EC50 (PE1008032 cells; [3]) | EC50 (PE904557a cells; Homo sapiens, 96 h) | other results
7 | 0.00571 µM | 0.035 µM | 0.033 µM | CC(C)C[C@H](NC(=O)[C@H](Cc1ccccc1)NC(=O)c1cnccn1)B(O)O [Bortezomib, bortezomib] | 0.0146 µM | 0.00333 µM | 0.032 µM | –
8 | 0.0216 µM | 0.0231 µM | 0.031 µM | Cc1[nH]c2ccccc2c1CCNCc1ccc(/C=C/C(=O)NO)cc1 [LBH589, panobinostat] | 0.185 µM | 0.0137 µM | 0.0905 µM | –
9 | 0.000299 µM | 0.00252 µM | 0.0137 µM | CC(=O)O[C@H]1C(=O)[C@@]2(C)[C@H]([C@H](OC(=O)c3ccccc3)[C@]3(O)C[C@H](OC(=O)[C@H](O)[C@@H](NC(=O)c4ccccc4)c4ccccc4)C(C)=C1C3(C)C)[C@]1(OC(C)=O)CO[C@@H]1C[C@@H]2O [Taxol, paclitaxel] | – | – | – | –
